Several values for one entry are separate records, joined by “and”; a condition that tells them apart may be missing. Identical values can stand only once. Inconclusive results and toxic doses are left out. No stated cut-off is given here; in the data, active means T/C of 150% or more; inactive means T/C below 125%.
Tested on: L1210 leukemia ip in BDF1 mice, survival T/C
Experiment: NCI In Vivo Anticancer Drug Screen. Data for tumor model L1210 Leukemia (intraperitoneal) in B6D2F1 (BDF1) mice
Details: endpoint: mean survival time, higher = longer survival
Summary of the method: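 Value reflects the ratio of survival in compound-treated mice to survival in vehicle-treated controls, with both groups carrying the same transplanted tumor.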

[1] = dose: 100.0 mg/kg/injection, schedule: Q04DX003 (ip), vehicle: saline with Tween-80
[2] = dose: 200.0 mg/kg/injection, schedule: Q04DX003 (ip), vehicle: saline with Tween-80
[3] = dose: 400.0 mg/kg/injection, schedule: Q04DX003 (ip), vehicle: saline with Tween-80
[4] = dose: 50.0 mg/kg/injection, schedule: Q01DX009 (ip), vehicle: saline with Tween-80
[5] = dose: 100.0 mg/kg/injection, schedule: Q01DX009 (ip), vehicle: saline with Tween-80
[6] = dose: 200.0 mg/kg/injection, schedule: Q01DX009 (ip), vehicle: saline with Tween-80
[7] = dose: 100.0 mg/kg/injection, schedule: Q04DX002 (ip), vehicle: saline
[8] = dose: 200.0 mg/kg/injection, schedule: Q04DX002 (ip), vehicle: saline
[9] = dose: 400.0 mg/kg/injection, schedule: Q04DX002 (ip), vehicle: saline
[10] = dose: 100.0 mg/kg/injection, schedule: Q04DX003 (ip), vehicle: Klucel (hydroxypropylcellulose) (HPC)
[11] = dose: 200.0 mg/kg/injection, schedule: Q04DX003 (ip), vehicle: Klucel (hydroxypropylcellulose) (HPC)
[12] = dose: 100.0 mg/kg/injection, schedule: Q04DX002 (ip), vehicle: saline with Tween-80
[13] = dose: 200.0 mg/kg/injection, schedule: Q04DX002 (ip), vehicle: saline with Tween-80
[14] = dose: 100.0 mg/kg/injection, schedule: Q01DX001 (ip), vehicle: saline
[15] = dose: 200.0 mg/kg/injection, schedule: Q01DX001 (ip), vehicle: saline
[16] = dose: 400.0 mg/kg/injection, schedule: Q01DX001 (ip), vehicle: saline

Measured: T/C

O=C1C[C@H]2[C@H](CO)[C@@H](OC(=O)c3ccc(-c4ccccc4)cc3)C[C@H]2O1
inactive: dose: 12.5 mg/kg/injection, schedule: Q01DX009 (ip), vehicle: alcohol 103 % of control | dose: 25.0 mg/kg/injection, schedule: Q01DX009 (ip), vehicle: alcohol 101 % of control | dose: 50.0 mg/kg/injection, schedule: Q01DX009 (ip), vehicle: alcohol 98 % of control

O=C1OC(c2ccc(Cl)cc2)Sc2ccccc21 (stereo unspecified)
inactive: [1] 103 % of control | [2] 94 % of control | [3] 100 % of control

COc1ccc(C(=O)CC(c2ccccc2)N2CCCCC2)cc1OC (stereo unspecified)
inactive: [1] 100 % of control | [2] 108 % of control | [3] 105 % of control

OC1CC(c2ccccc2)C1(c1ccccc1)c1ccccc1 (stereo unspecified)
inactive: dose: 75.0 mg/kg/injection, schedule: Q01DX001 (ip), vehicle: other 104 % of control | dose: 150.0 mg/kg/injection, schedule: Q01DX001 (ip), vehicle: other 102 % of control | dose: 300.0 mg/kg/injection, schedule: Q01DX001 (ip), vehicle: other 94 % of control

O=C1NCC(O)CN1
inactive: dose: 29.0 mg/kg/injection, schedule: Q01DX Z (ip), vehicle: methylcellulose (MC) 96 % of control | dose: 45.0 mg/kg/injection, schedule: Q01DX Z (ip), vehicle: methylcellulose (MC) 96 % of control | dose: 67.0 mg/kg/injection, schedule: Q01DX Z (ip), vehicle: methylcellulose (MC) 108 % of control | dose: 100.0 mg/kg/injection, schedule: Q01DX Z (ip), vehicle: methylcellulose (MC) 104 % of control

Cc1cc2c(cc1C)C1(c3ccccc3)OC2(c2ccccc2)C(C(=O)c2ccccc2)C1C(=O)c1ccccc1 (stereo unspecified)
inactive: [4] 91 % of control | [5] 91 % of control | [6] 91 % of control

COc1ccc(CC(=O)c2ccccc2)cc1
inactive: [7] 92 % of control | [8] 95 % of control | [9] 104 % of control

CC1CN1C1=C(Cl)C(=O)C(N2CC2C)=C(Cl)C1=O (stereo unspecified)
inactive: dose: 0.78 mg/kg/injection, schedule: Q01DX009 (ip), vehicle: Klucel (hydroxypropylcellulose) (HPC) 104 % of control | dose: 1.56 mg/kg/injection, schedule: Q01DX009 (ip), vehicle: Klucel (hydroxypropylcellulose) (HPC) 105 % of control | dose: 3.12 mg/kg/injection, schedule: Q01DX009 (ip), vehicle: Klucel (hydroxypropylcellulose) (HPC) 102 % of control | dose: 6.25 mg/kg/injection, schedule: Q01DX009 (ip), vehicle: Klucel (hydroxypropylcellulose) (HPC) 96 % of control | dose: 12.5 mg/kg/injection, schedule: Q01DX009 (ip), vehicle: Klucel (hydroxypropylcellulose) (HPC) 107 % of control

CN(C)C(=S)Oc1c(Cl)cc(S(=O)(=O)F)cc1Cl
inactive: dose: 12.5 mg/kg/injection, schedule: Q04DX002 (ip), vehicle: Klucel (hydroxypropylcellulose) (HPC) 98 % of control | dose: 25.0 mg/kg/injection, schedule: Q04DX002 (ip), vehicle: Klucel (hydroxypropylcellulose) (HPC) 105 % of control | dose: 50.0 mg/kg/injection, schedule: Q04DX002 (ip), vehicle: Klucel (hydroxypropylcellulose) (HPC) 109 % of control | dose: 100.0 mg/kg/injection, schedule: Q04DX002 (ip), vehicle: Klucel (hydroxypropylcellulose) (HPC) 94 % of control | dose: 200.0 mg/kg/injection, schedule: Q04DX002 (ip), vehicle: Klucel (hydroxypropylcellulose) (HPC) 100 % of control

O=C(Nc1cc(NC(=O)Oc2ccccc2)cc([N+](=O)[O-])c1)Oc1ccccc1
inactive: [1] 96 % of control | [2] 103 % of control | [3] 88 % of control

CCOCCC(=O)CC(=O)OC
inactive: [4] 96 % of control | [5] 100 % of control | [6] 96 % of control

O=C(OCc1ccccc1)Oc1ccc2ccccc2c1
inactive: [10] 102 % of control | [11] 95 % of control | dose: 400.0 mg/kg/injection, schedule: Q04DX003 (ip), vehicle: Klucel (hydroxypropylcellulose) (HPC) 95 % of control

CCOC(=O)CCCc1c[nH]c2ccccc12
inactive: [5] 101 % of control | [1] 95 % of control | [6] 101 % of control | [2] 100 % of control | dose: 400.0 mg/kg/injection, schedule: Q01DX009 (ip), vehicle: saline with Tween-80 102 % of control | [3] 95 % of control

O=C(O)C(CCO)c1ccccc1 (stereo unspecified)
inactive: [12] 95 % of control | [13] 100 % of control | dose: 400.0 mg/kg/injection, schedule: Q04DX002 (ip), vehicle: saline with Tween-80 95 % of control

NC(N)=N/N=C/c1cccc(F)c1
inactive: dose: 15.0 mg/kg/injection, schedule: Q01DX Z (ip), vehicle: saline 111 % of control | dose: 15.0 mg/kg/injection, schedule: Q01DX Z (oral), vehicle: saline 87 % of control | dose: 30.0 mg/kg/injection, schedule: Q01DX Z (ip), vehicle: saline 90 % of control | dose: 30.0 mg/kg/injection, schedule: Q01DX Z (oral), vehicle: saline 90 % of control

C=CCc1cn(C2OC(COC(=O)c3ccccc3)C(OC(=O)c3ccccc3)C2OC(=O)c2ccccc2)c(=O)[nH]c1=O (stereo unspecified)
inactive: dose: 12.5 mg/kg/injection, schedule: Q01DX005 (ip), vehicle: saline 92 % of control | dose: 12.5 mg/kg/injection, schedule: Q01DX009 (ip), vehicle: saline 95 % of control | dose: 25.0 mg/kg/injection, schedule: Q01DX005 (ip), vehicle: saline 92 % of control | dose: 25.0 mg/kg/injection, schedule: Q01DX009 (ip), vehicle: saline 95 % of control | dose: 50.0 mg/kg/injection, schedule: Q01DX005 (ip), vehicle: saline 94 % of control | dose: 50.0 mg/kg/injection, schedule: Q01DX009 (ip), vehicle: saline 98 % of control

O=C(O)c1cc([N+](=O)[O-])cc([N+](=O)[O-])c1O
inactive: [12] 113 % of control | [13] 104 % of control

O=C(/C=C\c1ccc(/C=C\C(=O)c2ccccc2O)cc1)c1ccccc1O
inactive: dose: 50.0 mg/kg/injection, schedule: Q01DX001 (ip), vehicle: saline 97 % of control | [14] 97 % of control | [15] 97 % of control | [16] 103 % of control

CN(C)NC(=O)C(c1ccccc1)c1ccccc1
inactive: dose: 25.0 mg/kg/injection, schedule: Q04DX003 (ip), vehicle: saline with Tween-80 100 % of control | dose: 50.0 mg/kg/injection, schedule: Q04DX003 (ip), vehicle: saline with Tween-80 97 % of control | [1] 92 % of control and 97 % of control

CCN(CC)CCNc1nc(-c2cc(C(F)(F)F)cc(C(F)(F)F)c2)nc(C(Cl)(Cl)Cl)n1
inactive: [7] 88 % of control | [8] 101 % of control | [9] 88 % of control

c1ccc(/C2=C(\c3ccccc3)CSSSSC2)cc1
inactive: dose: 50.0 mg/kg/injection, schedule: Q04DX003 (ip), vehicle: Klucel (hydroxypropylcellulose) (HPC) 105 % of control | [10] 98 % of control | [11] 98 % of control

CC(C)(C)NP(c1ccccc1)c1ccccc1
inactive: [14] 101 % of control | [15] 104 % of control | [16] 98 % of control

CN(C)c1nc(N)nc2c1ncn2C1OC(CO)CC1O (stereo unspecified)
inactive: dose: 100.0 mg/kg/injection, schedule: Q01DX001 (ip), vehicle: carboxymethylcellulose (CMC) 120 % of control | dose: 200.0 mg/kg/injection, schedule: Q01DX001 (ip), vehicle: carboxymethylcellulose (CMC) 98 % of control | dose: 400.0 mg/kg/injection, schedule: Q01DX001 (ip), vehicle: carboxymethylcellulose (CMC) 101 % of control
